According to article PMC12432127, “Assessing the potential of bacterial signal peptides for radiopharmaceutical applications” (Scientific Reports, 2025):
Values joined by “and” are separate entries in the source; they are usually repeats but may differ in a detail not shown here. Identical values can stand only once. Residues, ends and D or L forms follow the SMILES beside them. Groups on a side chain read outwards from the residue. *: point of attachment. DOTA = O=C(O)CN1CCN(CC(=O)O)CCN(CC(=O)*)CCN(CC(=O)O)CC1; Ahx = NCCCCCC(=O)O; For = O=C*

Tests used:
[1] = Stability in human plasma (radio-HPLC); assay type: in vitro ADME; settings: human plasma, 37 °C
Description: The radiolabelled compound (50 µL) was added to male human AB plasma (500 µL, Sigma Aldrich, USA, male AB) and incubated at 37 °C. Samples of 100 µL were taken at selected time points. The plasma proteins were precipitated with acetonitrile (-20 °C) and the precipitate was centrifuged for 1 min at 1500 rpm. The supernatant was analyzed by analytical radio-HPLC.

FPR1 = target: T1, FPR1 (Homo sapiens, UniProt P21462); assay: High-throughput calcium imaging (FLIPR), FPR1 transfected HEK293T cells; assay type: cell-based; settings: for EC50: FPR1 transfected HEK293T cells, peak calcium response, read-out: EC50 Ca2+ mobilization; for Calicum signal (dF/F0): FPR1-HEK
T1 construct: expressed in transfected cells; host or cells: HEK293T (transient, jetPEI)
T1 sequence (P21462 1-350): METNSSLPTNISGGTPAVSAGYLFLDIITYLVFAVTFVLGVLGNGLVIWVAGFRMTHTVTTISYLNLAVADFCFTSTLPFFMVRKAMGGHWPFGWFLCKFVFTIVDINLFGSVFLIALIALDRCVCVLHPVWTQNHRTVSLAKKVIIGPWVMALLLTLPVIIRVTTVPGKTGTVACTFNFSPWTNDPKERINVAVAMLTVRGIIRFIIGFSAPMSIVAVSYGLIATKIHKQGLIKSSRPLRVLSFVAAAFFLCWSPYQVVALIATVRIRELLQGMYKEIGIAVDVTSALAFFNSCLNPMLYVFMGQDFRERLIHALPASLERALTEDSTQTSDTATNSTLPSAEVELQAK
Description: Cell transfection was performed approximately 24 h after seeding the cells, when they reached about 70% confluence. Transfection was carried out using jetPEI™ (Polyplus) according to the following protocol: 0.25 µg DNA was diluted in 10 µL NaCl (150 mM). 0.5 µL of jetPEI™ solution in 10 µL NaCl was mixed with the DNA solution and incubated at RT for 15–30 min. After incubation, 20 µL of the jetPEI™/DNA mixture was added dropwise to the cells, which were then placed in the cell culture incubator at 37 °C and 5% CO2. After 18 to 24 h of transfection, the medium was replaced, and 100 µL per well was added, then placed back in the incubator.
(§1) Automated high-throughput Ca^2+ measurements using a fluorescence imaging plate reader (FLIPR, Molecular Devices) were performed. Briefly, […] were seeded in 96-well plates (~ 50,000 cells/well) one day before the experiments and incubated at 37 °C. HEK293T cells were co-transfected with the receptor or mock and the G protein Gα16 for 48 h. On the day of the experiments, the medium was removed, and the cells were loaded with a loading solution consisting of 2 µM Calbryte dye in C1 buffer (Calbryte 520AM, AAT Bioquest 20651) 50 µL per well, for at least 2 h at RT in the dark. After 2 h of loading with the fluorescent dye, the solution was removed, the plate was washed three times using an ELX50 washer (BioTek), and the intracellular release of calcium was measured using FLIPR. A Ca^2+ response was defined as an increase in the excitation ratio (340 nm/380 nm) that was at least four times higher than the mean baseline noise after bath application.
(§2) The results are expressed as the means ± standard deviations of the number of the indicated determinations. Calcium measurement experiments were routinely performed as triplicates and averaged over at least three independent transfections. Response amplitudes (F/F0) were calculated by dividing maximal fluorescence change after ligand application by baseline fluorescence. Maximal amplitudes were set to 100%, and curves were calculated with Graph Pad Prism Version 10.1 (GraphPad Software, Boston, MA, USA). S.D. values were calculated as averages from independently obtained EC50 values using the STDEV. Data derived from experiments were analyzed by two-way ANOVA. P < 0.05 was accepted as significant.

U87-MG cells = assay: Calcium imaging (FLIPR) in U87-MG cells; assay type: cell-based, human; settings: for EC50: U87-MG cells, read-out: EC50 Ca2+ flux; for Calicum signal (dF/F0): U87 cells
Description: as §1, §2

[2] = Log Concentration (M) -6,5, single replicate values, listed as f-MVPIK(Ahx-DOTA-Ga)I
[3] = Log Concentration (M) -6, single replicate values, listed as f-MVPIK(Ahx-DOTA-Ga)I
[4] = Log Concentration (M) -7,5, single replicate values, listed as f-MVPIK(Ahx-DOTA-Ga)I
[5] = Log Concentration (M) -7, single replicate values, listed as f-MVPIK(Ahx-DOTA-Ga)I
[6] = Log Concentration (M) -8,5, single replicate values, listed as f-MVPIK(Ahx-DOTA-Ga)I
[7] = Log Concentration (M) -8, single replicate values, listed as f-MVPIK(Ahx-DOTA-Ga)I
[8] = Log Concentration (M) -9, single replicate values, listed as f-MVPIK(Ahx-DOTA-Ga)I
[9] = Log Concentration (M) -6,5, single replicate values, listed as f-MVPIK(Ahx-DOTA-Lu)I
[10] = Log Concentration (M) -6, single replicate values, listed as f-MVPIK(Ahx-DOTA-Lu)I
[11] = Log Concentration (M) -7,5, single replicate values, listed as f-MVPIK(Ahx-DOTA-Lu)I
[12] = Log Concentration (M) -7, single replicate values, listed as f-MVPIK(Ahx-DOTA-Lu)I
[13] = Log Concentration (M) -8,5, single replicate values, listed as f-MVPIK(Ahx-DOTA-Lu)I
[14] = Log Concentration (M) -8, single replicate values, listed as f-MVPIK(Ahx-DOTA-Lu)I
[15] = Log Concentration (M) -9, single replicate values, listed as f-MVPIK(Ahx-DOTA-Lu)I

CC[C@H](C)[C@H](NC(=O)[C@H](CCCCNC(=O)CCCCCNC(=O)CN1CCN(CC(=O)O)CCN(CC(=O)O)CCN(CC(=O)O)CC1)NC(=O)[C@@H](NC(=O)[C@@H]1CCCN1C(=O)[C@@H](NC(=O)[C@H](CCSC)NC=O)C(C)C)[C@@H](C)CC)C(=O)O [[^68Ga]Ga-f-MVPIK(Ahx-DOTA)I, metal not drawn] (For-MVPIK([Ahx-DOTA])I-OH)
time stable in human plasma [1]: at least 4 h

CC[C@H](C)[C@H](NC(=O)[C@H](CCCCNC(=O)CCCCCNC(=O)CN1CCN(CC(=O)O)CCN(CC(=O)O)CCN(CC(=O)O)CC1)NC(=O)[C@@H](NC(=O)[C@@H]1CCCN1C(=O)[C@@H](NC(=O)[C@H](CCSC)NC=O)C(C)C)[C@@H](C)CC)C(=O)O [f-MVPIK(Ahx-DOTA)I] (For-MVPIK([Ahx-DOTA])I-OH)
EC50 (FPR1): 23 ± 2 nM
EC50 (U87-MG cells): 5.6 ± 0.9 nM

f-MLFKYS
sensitivity to FPR1 compared with FPR2 (calcium) (FPR1; FPR1 vs FPR2): very similar sensitivity to FPR1 and FPR2

CC[C@H](C)[C@H](NC(=O)[C@H](CCCCNC(=O)CCCCCNC(=O)CN1CCN(CC(=O)O)CCN(CC(=O)O)CCN(CC(=O)O)CC1)NC(=O)[C@@H](NC(=O)[C@@H]1CCCN1C(=O)[C@@H](NC(=O)[C@H](CCSC)NC=O)C(C)C)[C@@H](C)CC)C(=O)O [^natGa-f-MVPIK(Ahx-DOTA)I, metal not drawn] (For-MVPIK([Ahx-DOTA])I-OH)
Calicum signal (dF/F0) (FPR1; [2]): 0,85 and 0,8 and 0,68
Calicum signal (dF/F0) (FPR1; [3]): 0,85 and 0,89 and 0,8
Calicum signal (dF/F0) (FPR1; [4]): 0,66 and 0,52 and 0,6
Calicum signal (dF/F0) (FPR1; [5]): 0,74 and 0,87 and 0,65
Calicum signal (dF/F0) (FPR1; [6]): 0,12 and 0,27 and 0,23
Calicum signal (dF/F0) (FPR1; [7]): 0,28 and 0,27 and 0,3
Calicum signal (dF/F0) (FPR1; [8]): 0,14 and 0,13 and 0,12
EC50 (FPR1): 20 ± 1 nM
EC50 (U87-MG cells): 29 ± 2.1 nM
Calicum signal (dF/F0) (U87-MG cells; [2]): 1,2 and 1,8 and 0,91 and 1,18 and 1,37
Calicum signal (dF/F0) (U87-MG cells; [3]): 1,22 and 1,2 (2×) and 0,96 and 1,41
Calicum signal (dF/F0) (U87-MG cells; [4]): 0,77 and 0,6 (2×) and 0,61 and 0,7
Calicum signal (dF/F0) (U87-MG cells; [5]): 0,98 and 0,86 and 0,8 and 1,02 and 0,95
Calicum signal (dF/F0) (U87-MG cells; [6]): 0,4 and 0,38 and 0,33 and 0,46 and 0,35
Calicum signal (dF/F0) (U87-MG cells; [7]): 0,45 and 0,46 (2×) and 0,65 and 0,58
Calicum signal (dF/F0) (U87-MG cells; Log Concentration (M) -9,5, single replicate values, listed as f-MVPIK(Ahx-DOTA-Ga)I): 0,04 and 0,02 (3×) and 0,01
Calicum signal (dF/F0) (U87-MG cells; [8]): 0,11 (2×) and 0,17 and 0,14 and 0,13

CC[C@H](C)[C@H](NC(=O)[C@H](CCCCNC(=O)CCCCCNC(=O)CN1CCN(CC(=O)O)CCN(CC(=O)O)CCN(CC(=O)O)CC1)NC(=O)[C@@H](NC(=O)[C@@H]1CCCN1C(=O)[C@@H](NC(=O)[C@H](CCSC)NC=O)C(C)C)[C@@H](C)CC)C(=O)O [^natLu-f-MVPIK(Ahx-DOTA)I, metal not drawn] (For-MVPIK([Ahx-DOTA])I-OH)
Calicum signal (dF/F0) (FPR1; [9]): 0,91 and 0,74 and 0,82
Calicum signal (dF/F0) (FPR1; [10]): 0,93 and 0,87 and 0,9
Calicum signal (dF/F0) (FPR1; [11]): 0,7 and 0,5 and 0,6
Calicum signal (dF/F0) (FPR1; [12]): 0,89 and 0,6 and 0,71
Calicum signal (dF/F0) (FPR1; [13]): 0,31 and 0,28 and 0,34
Calicum signal (dF/F0) (FPR1; [14]): 0,58 and 0,41 and 0,43
Calicum signal (dF/F0) (FPR1; [15]): 0,13 and 0,23 and 0,2
EC50 (FPR1): 12 ± 1 nM
EC50 (U87-MG cells): 10 ± 0.9 nM
Calicum signal (dF/F0) (U87-MG cells; [9]): 1,2 and 1,34 and 1 and 1,14 and 0,83
Calicum signal (dF/F0) (U87-MG cells; [10]): 1,39 and 1,4 and 1,3 and 1,55 and 1,9
Calicum signal (dF/F0) (U87-MG cells; [11]): 0,86 and 0,93 and 0,8 and 0,82 and 0,85
Calicum signal (dF/F0) (U87-MG cells; [12]): 0,98 (2×) and 0,94 and 1,8 and 0,96
Calicum signal (dF/F0) (U87-MG cells; [13]): 0,62 (3×) and 0,55 and 0,58
Calicum signal (dF/F0) (U87-MG cells; [14]): 0,71 and 0,66 and 0,58 and 0,5 and 0,63
Calicum signal (dF/F0) (U87-MG cells; Log Concentration (M) -9,5, single replicate values, listed as f-MVPIK(Ahx-DOTA-Lu)I): 0,06 (2×) and 0,07 and 0,09 and 0,01
Calicum signal (dF/F0) (U87-MG cells; [15]): 0,12 (2×) and 0,21 and 0,14 and 0,18
